Tests used:
[1] = tested on: Turnip (TP); assay: Post-emergence herbicide test; assay type: in vivo, Brassica sp.; details: Brassica rapa, post-emergence, 336 h, two weeks after treatment
Procedure, shortened: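 A greenhouse post-emergence herbicide test on turnip. Seeds were sown on the surface of potting soil in 3' plastic pots, lightly covered with screened soil and watered from below. Planting was timed so seedlings had 1 or 2 true leaves above the cotyledons at spraying, done in a hood with a fixed nozzle. Control or injury was scored by eye after two weeks.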

[2] = tested on: Yellow foxtail grass (YF); assay: Pre-emergence herbicide test; assay type: in vivo, Setaria glauca; details: Setaria, 336 h, two weeks after treatment
Procedure, shortened: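 Visual rating of injury/control made two weeks after a pre-emergence spray of 8 or 4 lbs active per acre (38 gal/acre) onto pots seeded the previous day. Greenhouse watering by sub-irrigation only.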

[3] = tested on: variety of crops and weed species; assay: Pre- and post-emergence herbicide tests, overall assessment of Tables III-VI; assay type: in vivo; details: data of Tables III-VI
Procedure, shortened: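 Crops and weeds grown in potting soil were sprayed at 8 lbs. compound per acre in 38 gallons per acre, pre-emergence pots seeded one day before treatment. Injury or control was visually rated two weeks after treatment.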

[4] = tested on: Crabgrass (CG); assay: Pre-emergence herbicide test; assay type: in vivo, Digitaria sanquinalis; details: Digitaria sanguinalis, pre-emergence, 336 h, two weeks after treatment
Procedure, shortened: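 Crabgrass (Digitaria sanquinalis) was surface seeded in 3' plastic pots of potting soil, covered with screened soil, and watered by sub-irrigation in greenhouse trays. Pots were seeded one day before spraying in a hood with a moving belt and fixed nozzle. Plants stayed in the greenhouse on sub-irrigation, and pre-emergence control was rated visually two weeks after treatment.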

[5] = tested on: Amaranth pigweed (PW); assay: Pre-emergence herbicide test; assay type: in vivo, Amaranthus retroflexus; details: 336 h, two weeks after treatment
Procedure, shortened: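 Visual injury or control ratings were made at two weeks on pre-emergence pots, sub-irrigated in the greenhouse. Seeds were sown a day before a hood spray delivering 8 lbs/acre (or 4 lbs/acre) of compound in 38 gallons per acre.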

[6] = tested on: Barnyard grass (BG); assay: Pre-emergence herbicide test; assay type: in vivo; details: Echinochloa crus-galli, 336 h, two weeks after treatment
Procedure, shortened: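 Greenhouse pre-emergence spray test: pots seeded one day before treatment received compound at rates of 8 or 4 lb/acre (38 gal/acre). Visual injury/control scores for Echinochloa crus-galli taken at two weeks, with watering by sub-irrigation only.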

[7] = tested on: Crabgrass (CG); assay: Post-emergence herbicide test; assay type: in vivo, Digitaria sanquinalis; details: Digitaria sanguinalis, post-emergence, 336 h, two weeks after treatment
Procedure, shortened: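 Crabgrass (Digitaria sanquinalis) was surface seeded individually in 3' plastic pots of potting soil, covered with screened soil, and watered by sub-irrigation in greenhouse trays. Planting was staggered so seedlings reached the target stage together. Post-emergence sprays were applied in a hood with a removable belt and fixed nozzle, and control was visually rated two weeks after treatment.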

[8] = tested on: Corn (CN); assay: Pre-emergence herbicide test; assay type: in vivo; details: Zea mays, 336 h, two weeks after treatment
Procedure, shortened: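 Visual injury/control ratings were made 2 weeks post-spray on corn pots seeded (4 seeds, seed-diameter depth) the day before treatment. Application was a belt-hood spray of 38 gal/acre delivering 8 lbs active per acre, with a 4 lbs/acre rate also formulated. Watering was by sub-irrigation throughout.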

[9] = tested on: Cotton (CT); assay: Post-emergence herbicide test; assay type: in vivo, Gossypium hirsutum var. DPL smooth leaf; details: Gossypium hirsutum, post-emergence, 336 h, two weeks after treatment
Procedure, shortened: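 This greenhouse post-emergence test measured how well spray treatments controlled cotton. Seedlings of Gossypium hirsutum var. DPL smooth leaf, with expanded cotyledons and a first true leaf 1' in length, were sprayed with 50 ml formulations in a belt-fed spray hood. They were then returned to the greenhouse and watered only by sub-irrigation. Injury was scored visually as % control after two weeks.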

[10] = tested on: Amaranth pigweed (PW); assay: Post-emergence herbicide test; assay type: in vivo, Amaranthus retroflexus; details: 336 h, two weeks after treatment
Procedure, shortened: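 Visual injury or control ratings were made two weeks after spraying, with greenhouse watering by sub-irrigation only. Treatment was post-emergence, when pigweed seedlings had 1 or 2 true leaves, at 8 lbs active compound per acre (4 lbs/acre formulations also made) in a 38 gallons-per-acre spray volume.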

[11] = tested on: Johnson grass (JG); assay: Pre-emergence herbicide test; assay type: in vivo, Sorgum helepense; details: Sorghum halepense, 336 h, two weeks after treatment
Procedure, shortened: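 Visual injury or control rating two weeks post-treatment, after pre-emergence spray of 8 or 4 lbs active per acre (38 gal/acre) onto pots sown the previous day. Greenhouse watering by sub-irrigation only.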

[12] = tested on: Bean (BN); assay: Pre-emergence herbicide test; assay type: in vivo, Phaseolus vulgaris var. Black Valentine; details: Phaseolus vulgaris, 336 h, two weeks after treatment
Procedure, shortened: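 Visual injury/control ratings were taken two weeks post-spray on sub-irrigated Phaseolus vulgaris var. Black Valentine. Pots were sown a day before treatment. Pre-emergence spray delivered 8 lbs actual compound per acre (or 4 lbs/acre) at 38 gallons per acre.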

[13] = tested on: Barnyard grass (BG); assay: Post-emergence herbicide test; assay type: in vivo; details: Echinochloa crus-galli, 336 h, two weeks after treatment
Procedure, shortened: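 Greenhouse pot-grown barnyard grass seedlings sprayed post-emergence at 8 lbs active compound per acre (some at 4 lbs/acre) in 38 gallons per acre, then sub-irrigated. Injury or control rated visually two weeks after treatment.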

[14] = tested on: Yellow foxtail grass (YF); assay: Post-emergence herbicide test; assay type: in vivo, Setaria glauca; details: Setaria, 336 h, two weeks after treatment
Procedure, shortened: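 Visual rating of injury/control made 2 weeks post-spray. Seedlings at a uniform growth stage in soil-filled pots received a hood spray of 8 lbs/acre active compound, 38 gallons/acre volume, with a 4 lbs/acre rate also formulated. Watering was by sub-irrigation only.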

[15] = tested on: Bean (BN); assay: Post-emergence herbicide test; assay type: in vivo, Phaseolus vulgaris var. Black Valentine; details: Phaseolus vulgaris, post-emergence, 336 h, two weeks after treatment
Procedure, shortened: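 Bean seedlings (Phaseolus vulgaris var. Black Valentine) were grown in potting soil in 3' pots until the primary leaves expanded. They were then sprayed under a hood with a removable belt and fixed nozzle, using 50 ml formulations. Afterward they were returned to the greenhouse and watered only by sub-irrigation. Percent control was judged visually two weeks after treatment.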

[16] = tested on: Turnip (TP); assay: Pre-emergence herbicide test; assay type: in vivo, Brassica sp.; details: Brassica rapa, pre-emergence, 336 h, two weeks after treatment
Procedure, shortened: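 In this pre-emergence greenhouse test, turnip was seeded on the surface of potting soil in 3' plastic pots, lightly covered with screened soil, and watered from below. One day later the pots were sprayed in a belt-fed spray hood. Watering continued only by sub-irrigation, and percent control was visually scored two weeks after treatment.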

[17] = tested on: Corn (CN); assay: Post-emergence herbicide test; assay type: in vivo; details: Zea mays, 336 h, two weeks after treatment
Procedure, shortened: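 Greenhouse seedlings grown in potting soil and sprayed post-emergence at 8 lbs compound/acre (formulations also made for 4 lbs/acre) in 38 gallons/acre spray volume. Watering by sub-irrigation only. Injury or control rated visually two weeks after treatment.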

[18] = tested on: Johnson grass (JG); assay: Post-emergence herbicide test; assay type: in vivo, Sorgum helepense; details: Sorghum halepense, 336 h, two weeks after treatment
Procedure, shortened: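 Visual injury or control scores taken 2 weeks after a post-emergence spray of pot-grown plants. Application was 8 lbs/acre (or 4 lbs/acre) in 38 gal/acre. Plants were held in the greenhouse with sub-irrigation only.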

[19] = tested on: Cotton (CT); assay: Pre-emergence herbicide test; assay type: in vivo, Gossypium hirsutum var. DPL smooth leaf; details: Gossypium hirsutum, 336 h, two weeks after treatment
Procedure, shortened: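 Visual injury/control ratings were taken at two weeks post-spray. Pots seeded a day earlier received compound pre-emergence at 8 lbs/acre, or 4 lbs/acre, in a 38 gallon/acre spray volume, and were then held in the greenhouse, watered only from below.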

Q: Which results are given for CNC(=O)N(C)c1nnc(C(F)(F)F)s1 [Example 36]?
A: pest or weed control at 2241.7 g/ha ([1]; 2 lb/acre): 100%; pest or weed control at 4483.4 g/ha ([1]; 4 lb/acre): 100%; pest or weed control at 8966.8 g/ha ([1]; 8 lb/acre): 100%; pest or weed control at 2241.7 g/ha ([2]; 2 lb/acre): 100%; pest or weed control at 4483.4 g/ha ([2]; 4 lb/acre): 90%; pest or weed control at 8966.8 g/ha ([2]; 8 lb/acre): 90%; herbicidal effectiveness / selectivity, in words [3]: extremely effective when applied to a variety of crops and weed species; pest or weed control ([4]; 2 lb/acre): 100%; pest or weed control at 4483.4 g/ha ([4]; 4 lb/acre): 90%; pest or weed control at 8966.8 g/ha ([4]; 8 lb/acre): 90%; pest or weed control at 2241.7 g/ha ([5]; 2 lb/acre): 90%; pest or weed control at 4483.4 g/ha ([5]; 4 lb/acre): 100%; pest or weed control at 8966.8 g/ha ([5]; 8 lb/acre): 90%; pest or weed control at 2241.7 g/ha ([6]; 2 lb/acre): 80%; pest or weed control at 4483.4 g/ha ([6]; 4 lb/acre): 100%; pest or weed control at 8966.8 g/ha ([6]; 8 lb/acre): 90%; pest or weed control ([7]; 2 lb/acre): 70%; pest or weed control at 4483.4 g/ha ([7]; 4 lb/acre): 90%; pest or weed control at 8966.8 g/ha ([7]; 8 lb/acre): 100%; pest or weed control at 2241.7 g/ha ([8]; 2 lb/acre): 30%; pest or weed control at 4483.4 g/ha ([8]; 4 lb/acre): 40%; pest or weed control at 8966.8 g/ha ([8]; 8 lb/acre): 30%; pest or weed control at 2241.7 g/ha ([9]; 2 lb/acre): 100%; pest or weed control at 4483.4 g/ha ([9]; 4 lb/acre): 100%; pest or weed control at 8966.8 g/ha ([9]; 8 lb/acre): 100%; pest or weed control at 2241.7 g/ha ([10]; 2 lb/acre): 100%; pest or weed control at 4483.4 g/ha ([10]; 4 lb/acre): 100%; pest or weed control at 8966.8 g/ha ([10]; 8 lb/acre): 100%; pest or weed control at 2241.7 g/ha ([11]; 2 lb/acre): 70%; pest or weed control at 4483.4 g/ha ([11]; 4 lb/acre): 40%; pest or weed control at 8966.8 g/ha ([11]; 8 lb/acre): 90%; pest or weed control at 2241.7 g/ha ([12]; 2 lb/acre): 90%; pest or weed control at 4483.4 g/ha ([12]; 4 lb/acre): 80%; pest or weed control at 8966.8 g/ha ([12]; 8 lb/acre): 100%; pest or weed control at 2241.7 g/ha ([13]; 2 lb/acre): 100%; pest or weed control at 4483.4 g/ha ([13]; 4 lb/acre): 100%; pest or weed control at 8966.8 g/ha ([13]; 8 lb/acre): 100%; pest or weed control ([14]; 2 lb/acre): 100%; pest or weed control at 4483.4 g/ha ([14]; 4 lb/acre): 100%; pest or weed control at 8966.8 g/ha ([14]; 8 lb/acre): 100%; pest or weed control at 2241.7 g/ha ([15]; 2 lb/acre): 100%; pest or weed control at 4483.4 g/ha ([15]; 4 lb/acre): 100%; pest or weed control at 8966.8 g/ha ([15]; 8 lb/acre): 100%; pest or weed control at 2241.7 g/ha ([16]; 2 lb/acre): 100%; pest or weed control at 4483.4 g/ha ([16]; 4 lb/acre): 100%; pest or weed control at 8966.8 g/ha ([16]; 8 lb/acre): 100%; pest or weed control ([17]; 2 lb/acre): 70%; pest or weed control at 4483.4 g/ha ([17]; 4 lb/acre): 100%; pest or weed control at 8966.8 g/ha ([17]; 8 lb/acre): 100%; pest or weed control ([18]; 2 lb/acre): 80%; pest or weed control at 4483.4 g/ha ([18]; 4 lb/acre): 80%; pest or weed control at 8966.8 g/ha ([18]; 8 lb/acre): 100%; pest or weed control at 2241.7 g/ha ([19]; 2 lb/acre): 80%; pest or weed control at 4483.4 g/ha ([19]; 4 lb/acre): 90%; pest or weed control at 8966.8 g/ha ([19]; 8 lb/acre): 90%

Reference: US4175081A, “5-Substituted thiadiazole ureas” (priority 1977, dated 1979)
